Measured values taken from patent US7589113B2, “Substituted oxadiazole compounds and their use as opioid receptor ligands” (Gruenenthal GmbH, priority 2005, dated 2009).

Tests used:
human μ opiate receptor = target: T1, human μ opiate receptor (Homo sapiens, UniProt P35372); assay: Affinity for human μ opiate receptor ([3H]-naloxone displacement, SPA); format: binding; settings: for inhibition at 1 µM / μ opioid receptor, % inhibition [1 μM]: 1 μM test substance, inhibition of specific [3H]-naloxone binding; for inhibition at 1 µM: read-out: μ opioid receptor, % inhibition [1 μM]; for Ki: Cheng-Prusoff conversion from IC50, read-out: μ opioid receptor, Ki
T1 construct: purchased PerkinElmer Life Sciences, Zaventem, Belgium RB-HOM; host or cells: CHO-K1 cells (membrane preparation)
T1 sequence (P35372 whole entry): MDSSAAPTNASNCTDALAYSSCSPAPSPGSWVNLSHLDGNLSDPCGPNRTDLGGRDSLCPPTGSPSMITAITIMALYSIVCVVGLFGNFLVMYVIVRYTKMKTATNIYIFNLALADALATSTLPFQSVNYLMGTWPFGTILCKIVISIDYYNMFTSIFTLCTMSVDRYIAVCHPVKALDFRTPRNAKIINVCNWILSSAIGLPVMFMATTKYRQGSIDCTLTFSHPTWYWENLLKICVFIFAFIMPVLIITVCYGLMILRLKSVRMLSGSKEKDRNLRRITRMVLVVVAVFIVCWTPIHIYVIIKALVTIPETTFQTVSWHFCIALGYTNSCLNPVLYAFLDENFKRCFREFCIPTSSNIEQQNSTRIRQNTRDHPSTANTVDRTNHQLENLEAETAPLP
Description: Method for Determining Affinity for Human μ Opiate Receptor
Receptor affinity for the human μ opiate receptor is determined in a homogeneous batch in microtitre plates. To this end, dilution series of the substances to be tested are incubated in a total volume of 250 μl for 90 minutes at room temperature with a receptor membrane preparation (15-40 μg protein/250 μl incubation batch) of CHO-K1 cells which express the human μ-opiate receptor (RB-HOM receptor membrane preparation from PerkinElmer Life Sciences, Zaventem, Belgium) in the presence of 1 nmol/l of the radioactive ligand [^3H]-naloxone (NET719, from PerkinElmer Life Sciences, Zaventem, Belgium) and 1 mg of WGA-SPA beads (wheat germ agglutinin SPA beads from Amersham/Pharmacia, Freiburg, Germany). 50 mmol/l of tris HCl supplemented with 0.06% bovine serum albumin is used as the incubation buffer. Nonspecific binding is determined by additionally adding 100 μmol/l of naloxone. Once the ninety minute incubation time has elapsed, the microtitre plates are centrifuged off for 20 minutes at 1000 g and the radioactivity measured in a β counter (Microbeta-Trilux, from PerkinElmer Wallac, Freiburg, Germany). The percentage displacement of the radioactive ligand from its binding to the human μ opiate receptor is determined at a concentration of the test substances of 1 μmol/l and stated as percentage inhibition of specific binding. On the basis of the percentage displacement brought about by different concentrations of the test substances, IC50 inhibition concentrations which result in a 50% displacement of the radioactive ligand are calculated. Ki values for the test substances are obtained by conversion using the Cheng-Prusoff equation.

Noradrenalin reuptake = target: T2, Noradrenalin reuptake (Rattus norvegicus, UniProt Q63380); assay: Noradrenalin (NA) reuptake inhibition in rat hypothalamus synaptosomes; format: biochemical
T2 construct: these vesicular particles are isolated from the hypothalamus of male rat brains; from tissue; host or cells: hypothalamus of male rat brains, synaptosomes (P2 fraction)
T2 sequence (Q63380 1-617): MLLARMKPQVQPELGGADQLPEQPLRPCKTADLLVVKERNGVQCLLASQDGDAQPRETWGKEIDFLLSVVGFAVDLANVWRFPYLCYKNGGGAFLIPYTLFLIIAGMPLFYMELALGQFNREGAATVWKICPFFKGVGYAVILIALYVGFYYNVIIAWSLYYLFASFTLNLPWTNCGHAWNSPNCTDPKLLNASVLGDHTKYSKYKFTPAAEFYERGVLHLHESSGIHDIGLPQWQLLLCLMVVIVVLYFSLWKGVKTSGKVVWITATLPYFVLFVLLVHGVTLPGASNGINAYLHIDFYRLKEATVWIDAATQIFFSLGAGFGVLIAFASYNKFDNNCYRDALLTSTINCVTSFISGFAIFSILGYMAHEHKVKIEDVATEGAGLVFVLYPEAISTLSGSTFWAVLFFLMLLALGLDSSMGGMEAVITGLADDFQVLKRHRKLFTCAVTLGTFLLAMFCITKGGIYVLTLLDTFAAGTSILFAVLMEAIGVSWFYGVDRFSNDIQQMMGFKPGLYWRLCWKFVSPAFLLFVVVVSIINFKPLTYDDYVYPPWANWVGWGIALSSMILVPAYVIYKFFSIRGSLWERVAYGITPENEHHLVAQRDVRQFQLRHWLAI
Description: (§1) Noradrenalin (NA) and Serotonin (5HT) Reuptake Inhibition
(§2) In order to be able to carry out these in vitro studies, synaptosomes are freshly isolated from rat brain regions. A “P2” fraction is used, which is prepared according to the instructions given by Gray and Whittaker (E. G. Gray and V. P. Whittaker (1962) J. Anat. 76, 79-88). For NA uptake, these vesicular particles are isolated from the hypothalamus of male rat brains.
(§3) A detailed description of the method may be found in the literature (M. Ch. Frink, H.-H. Hennies, W. Engiberger, M. Haurand and B. Wilffert (1996) Arzneim.-Forsch./Drug Res. 46 (III), 11, 1029-1036).

Serotonin reuptake = target: T3, Serotonin reuptake (Rattus norvegicus, UniProt P31652); assay: Serotonin (5HT) reuptake inhibition in rat brain synaptosomes; format: biochemical
T3 construct: synaptosomes are freshly isolated from rat brain regions; from tissue; host or cells: rat brain synaptosomes (P2 fraction)
T3 sequence (P31652 whole entry): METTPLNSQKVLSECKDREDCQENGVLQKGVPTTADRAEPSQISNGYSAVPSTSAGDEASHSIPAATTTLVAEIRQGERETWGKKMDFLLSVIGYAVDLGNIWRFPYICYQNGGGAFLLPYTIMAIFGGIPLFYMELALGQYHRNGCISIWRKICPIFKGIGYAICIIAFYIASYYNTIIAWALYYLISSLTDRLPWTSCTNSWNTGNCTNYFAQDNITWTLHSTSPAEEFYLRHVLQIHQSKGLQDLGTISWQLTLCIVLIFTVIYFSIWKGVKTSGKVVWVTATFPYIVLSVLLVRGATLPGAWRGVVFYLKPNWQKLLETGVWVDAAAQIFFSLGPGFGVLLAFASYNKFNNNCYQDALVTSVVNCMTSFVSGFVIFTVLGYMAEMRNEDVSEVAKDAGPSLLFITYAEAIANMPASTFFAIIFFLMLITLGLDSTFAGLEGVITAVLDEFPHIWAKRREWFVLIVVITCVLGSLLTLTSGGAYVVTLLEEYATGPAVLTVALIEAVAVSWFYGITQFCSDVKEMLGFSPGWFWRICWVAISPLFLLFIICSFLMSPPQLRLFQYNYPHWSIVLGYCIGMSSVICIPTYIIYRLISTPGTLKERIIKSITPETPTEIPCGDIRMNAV
Description: as §1, §2, §3

| Structure (SMILES) | inhibition at 1 µM (human μ opiate receptor) | further results |
| --- | --- | --- |
| CN(C)C(c1ccccc1)C1CCC(Cc2nc(Cc3ccc(Cl)cc3)no2)CC1 (stereo not drawn) [Example 43, (4-((3-(4-chlorobenzyl)-1,2,4-oxadiazol-5-yl)methyl)cyclohexyl)-N,N-dimethyl(phenyl)methanamine] | 83% | Ki (human μ opiate receptor): 44 nM; inhibition at 10 µM (Noradrenalin reuptake): 95%; inhibition at 10 µM (Serotonin reuptake): 95% |
| COc1ccc(Cc2noc(CC3CCC(C(c4ccccc4)N(C)C)CC3)n2)cc1 (stereo not drawn) [Example 44, (4-((3-(4-methoxybenzyl)-1,2,4-oxadiazol-5-yl)methyl)cyclohexyl)-N,N-dimethyl(phenyl)methanamine] | – | μ opioid receptor, % inhibition [1 μM] (human μ opiate receptor): 75%; Ki (human μ opiate receptor): 72 nM; inhibition at 10 µM (Noradrenalin reuptake): 100%; inhibition at 10 µM (Serotonin reuptake): 99% |
| CN(C)C(c1ccc(F)cc1)C1CCC(=Cc2nc(-c3cccc(Cl)c3Cl)no2)CC1 (stereo not drawn) [Example 55, [{4-[3-(2,3-dichlorophenyl)-[1,2,4]oxadiazol-5-ylmethylene]-cyclohexyl}-(4-fluorophenyl)-methyl]-dimethylamine] | 53% | – |
| CN(C)C(c1ccccc1)C1CCC(=Cc2nc(-c3ccccc3)no2)CC1 (stereo not drawn) [Example 69, dimethyl-{phenyl-[4-(3-phenyl-[1,2,4]oxadiazol-5-ylmethylene)-cyclohexyl]-methyl}-amine] | 40% | – |
| COc1ccc(Cc2noc(C=C3CCC(C(c4ccccc4)N(C)C)CC3)n2)cc1 (stereo not drawn) [Example 79, ({4-[3-(4-methoxybenzyl)-[1,2,4]oxadiazol-5-ylmethylene]-cyclohexyl}-phenylmethyl)-dimethylamine] | 43% | – |
| Cc1cccc(-c2noc(C=C3CCC(C(c4ccccc4)N(C)C)CC3)n2)c1 (stereo not drawn) [Example 135, dimethyl-{phenyl-[4-(3-m-tolyl-[1,2,4]oxadiazol-5-ylmethylene)-cyclohexyl]-methyl}-amine] | 44% | – |
| CN(C)C(c1ccccc1)C1CCC(C=Cc2nc(Cc3ccc(Cl)cc3)no2)CC1 (stereo not drawn) [Example 149, [(4-{2-[3-(4-chlorobenzyl)-[1,2,4]oxadiazol-5-yl]-vinyl}-cyclohexyl)-phenylmethyl]-dimethylamine] | 42% | – |
| CN(C)C(c1ccccc1)C1CCC(C=Cc2nc(Cc3ccc(Cl)cc3)no2)CC1 (stereo not drawn) [Example 150, [(4-{2-[3-(4-chlorobenzyl)-[1,2,4]oxadiazol-5-yl]-vinyl}-cyclohexyl)-phenylmethyl]-dimethylamine] | – | μ opioid receptor, % inhibition [1 μM] (human μ opiate receptor): 56% |
| CN(C)C(c1cccs1)C1CCC(C=Cc2nc(Cc3ccc(Cl)cc3)no2)CC1 (stereo not drawn) [Example 155, [(4-{2-[3-(4-chlorobenzyl)-[1,2,4]oxadiazol-5-yl]-vinyl}-cyclohexyl)-thiophen-2-yl-methyl]-dimethylamine] | 52% | – |
| Cc1cccc(-c2noc(C=CC3CCC(C(c4ccccc4)N(C)C)CC3)n2)c1 (stereo not drawn) [Example 183, dimethyl-(phenyl-{4-[2-(3-m-tolyl-[1,2,4]oxadiazol-5-yl)-vinyl]-cyclohexyl}-methyl)-amine] | 40% | – |
| Cc1cccc(-c2noc(C=CC3CCC(C(c4cccs4)N(C)C)CC3)n2)c1 (stereo not drawn) [Example 195, dimethyl-(thiophen-2-yl-{4-[2-(3-m-tolyl-[1,2,4]oxadiazol-5-yl)-vinyl]-cyclohexyl}-methyl)-amine] | 48% | – |
| Cc1ccc(-c2noc(C=CC3CCC(C(c4cccs4)N(C)C)CC3)n2)n1C (stereo not drawn) [Example 224, [(4-{2-[3-(1,5-dimethyl-1H-pyrrol-2-yl)-[1,2,4]oxadiazol-5-yl]-vinyl}-cyclohexyl)-thiophen-2-yl-methyl]-dimethylamine] | 54% | – |
| CN(C)C(c1cccc(F)c1)C1CCC(Cc2nc(-c3ccccc3)no2)CC1 (stereo not drawn) [Example 232, {(3-fluorophenyl)-[4-(3-phenyl-[1,2,4]oxadiazol-5-ylmethyl)-cyclohexyl]-methyl}-dimethylamine] | 41% | – |
| CN(C)C(c1ccccc1)C1CCC(Cc2nc(-c3ccccc3)no2)CC1 (stereo not drawn) [Example 234, dimethyl-{phenyl-[4-(3-phenyl-[1,2,4]oxadiazol-5-ylmethyl)-cyclohexyl]-methyl}-amine] | 64% | – |
| COc1ccc(Cc2noc(CC3CCC(C(c4ccccc4)N(C)C)CC3)n2)cc1 (stereo not drawn) [Example 239, ({4-[3-(4-methoxybenzyl)-[1,2,4]oxadiazol-5-ylmethyl]-cyclohexyl}-phenylmethyl)-dimethylamine] | 66% | – |
| CN(C)C(c1ccccc1)C1CCC(Cc2nc(-c3cccc(Cl)c3)no2)CC1 (stereo not drawn) [Example 243, ({4-[3-(3-chlorophenyl)-[1,2,4]oxadiazol-5-ylmethyl]-cyclohexyl}-phenylmethyl)-dimethylamine] | 55% | Ki (human μ opiate receptor): 320 nM |
| CN(C)C(c1ccccc1)C1CCC(Cc2nc(-c3cccc(Cl)c3Cl)no2)CC1 (stereo not drawn) [Example 246, ({4-[3-(2,3-dichlorophenyl)-[1,2,4]oxadiazol-5-ylmethyl]-cyclohexyl}-phenylmethyl)-dimethylamine] | 56% | – |
| Cc1cccc(-c2noc(CC3CCC(C(c4ccccc4)N(C)C)CC3)n2)c1 (stereo not drawn) [Example 258, dimethyl-{phenyl-[4-(3-m-tolyl-[1,2,4]oxadiazol-5-ylmethyl)-cyclohexyl]-methyl}-amine] | 53% | – |
| COc1ccc(Cc2noc(CCC3CCC(C(c4ccccc4)N(C)C)CC3)n2)cc1 (stereo not drawn) [Example 269, [(4-{2-[3-(4-methoxybenzyl)-[1,2,4]oxadiazol-5-yl]-ethyl}-cyclohexyl)-phenylmethyl]-dimethylamine] | 43% | – |
| CN(C)C(c1ccccc1)C1CCC(CCc2nc(Cc3ccc(Cl)cc3)no2)CC1 (stereo not drawn) [Example 273, [(4-{2-[3-(4-chlorobenzyl)-[1,2,4]oxadiazol-5-yl]-ethyl}-cyclohexyl)-phenylmethyl]-dimethylamine] | 68% | – |
| CN(C)C(c1ccccc1)C1CCC(CCc2nc(-c3ccc(F)cc3F)no2)CC1 (stereo not drawn) [Example 281, [(4-{2-[3-(2,4-difluorophenyl)-[1,2,4]oxadiazol-5-yl]-ethyl}-cyclohexyl)-phenylmethyl]-dimethylamine] | 69% | – |
| Cc1cccc(-c2noc(CCC3CCC(C(c4ccccc4)N(C)C)CC3)n2)c1 (stereo not drawn) [Example 296, dimethyl-(phenyl-{4-[2-(3-m-tolyl-[1,2,4]oxadiazol-5-yl)-ethyl]-cyclohexyl}-methyl)-amine] | 45% | – |
| CN(C)C(c1ccccc1)C1CCC(CCc2nc(-c3cccc(Cl)c3Cl)no2)CC1 (stereo not drawn) [Example 304, [(4-{2-[3-(2,3-dichlorophenyl)-[1,2,4]oxadiazol-5-yl]-ethyl}-cyclohexyl)-phenylmethyl]-dimethylamine] | 51% | – |
